Reference: patent US20070026080A1, “Manufacturing process for tigecycline” (Wyeth, priority 2005, published 2007)

Assay: Strength and degradation profile of tigecycline 20 mg/mL bulk solutions by reversed phase HPLC (effect of temperature, time, pH, dissolved oxygen; Runs A to O)
Format: physicochemical
Settings: 20 mg/mL
Method: The contents of the sample vials are dissolved in diluent. The sample solution is diluted, if necessary, and chromatographed on a reversed phase column using gradient elution. Impurities are determined by comparing the impurity peak areas in the sample preparation chromatogram to the average area of tigecycline peaks in the standard preparation chromatograms obtained concomitantly.
Chromatographic Column—Length about 15 cm, inside diameter about 4.6 mm, packed with Inertsil ODS2, 5 μm size particles or equivalent.
Detector—Ultraviolet spectrophotometric detector capable of operating at 248 nm with a sensitivity of about 0.5 absorbance units full scale.
The results of additional studies to investigate the effect of processing parameters such as temperature, time, and dissolved oxygen content on the purity profile of tigecycline solutions using the following materials, methods and procedures are presented in Tables A to O.
The experiments were run in plastic glove bags under normal laboratory light conditions. Plastic glove boxes will be used to control the headspace of the beakers. The batch size was 200 mL. • 1. Prepare the glove bag with a mixture of nitrogen and air to achieve an oxygen level in the solution as per the design. • 2. Place the jacketed beaker on the magnetic stirrer. Connect it to the cooler. Set the cooler to the desired set point. • 3. Add 200 mL of SWFI in to the beaker. Allow equilibrating. Measure the temperature and oxygen content. When it reaches the desired condition, add accurately weighed API and mix until dissolved. If necessary use spatula to aid dissolution. For pH adjustments, use 4 mL of either 0.1N NaOH or 0.1N HCl and 196 mL of WFI for manufacture. • 4. After complete dissolution, Transfer about 5.5 mL of Solution in vials and stopper them. These vials will be stoppered at the appropriate headspace conditions. Place the vials in appropriate temperature conditions. • 5. Sample the vials at 1, 4, 8, 10, 12 and 24 hours. Send the samples for analysis. Freeze the 10, 12 and 24 samples at −20° C. for analysis the following day. • 6. Measure pH and record color of the solution at each time point. Results
The 1-hour samples were taken directly from the beakers. Samples for later time points were collected in stoppered vials processed in the atmosphere of the bag in order to simulate the headspace conditions then placed in water baths or refrigerator to maintain there respective temperature conditions. This was done to maintain safety in the lab. Disposable plastic glove bags require constant flow of a mixture of nitrogen and air to maintain headspace oxygen level that will result in the desired dissolved oxygen (DO) content in the sample. The pH of samples was measured at each sample points.
Strength and degradation profile was analyzed by HPLC as described above. […] Degradation was slightly higher at higher temperature condition.

[1] = Run #I, 5° C., pH 7.9, Oxygen 1.0 mg/L, hours 1,4,8,10,12,24 at r6-r11, 24 h
[2] = Run #I, 5° C., pH 7.9, Oxygen 1.0 mg/L, hours 1,4,8,10,12,24 at r17-r22
[3] = Run #I, 5° C., pH 7.9, Oxygen 1.0 mg/L, hours 1,4,8,10,12,24 at r17-r22, 1 h
[4] = Run #I, 5° C., pH 7.9, Oxygen 1.0 mg/L, hours 1,4,8,10,12,24 at r17-r22, 4 h
[5] = Run #I, 5° C., pH 7.9, Oxygen 1.0 mg/L, hours 1,4,8,10,12,24 at r17-r22, 8 h
[6] = Run #I, 5° C., pH 7.9, Oxygen 1.0 mg/L, hours 1,4,8,10,12,24 at r17-r22, 10 h
[7] = Run #I, 5° C., pH 7.9, Oxygen 1.0 mg/L, hours 1,4,8,10,12,24 at r17-r22, 24 h
[8] = Run #J, 8° C., Oxygen = 1.0 mg/mL, hours 1,4,8,12,24 at r6-r10, 1 hours
[9] = Run #J, 8° C., Oxygen = 1.0 mg/mL, hours 1,4,8,12,24 at r6-r10, 4 hours
[10] = Run #J, 8° C., Oxygen = 1.0 mg/mL, hours 1,4,8,12,24 at r6-r10, 8 hours
[11] = Run #J, 8° C., Oxygen = 1.0 mg/mL, hours 1,4,8,12,24 at r6-r10, 12 hours
[12] = Run #J, 8° C., Oxygen = 1.0 mg/mL, hours 1,4,8,12,24 at r6-r10, 24 hours
[13] = Run #J, 8° C., hours 1,4,8,12,24 at r6-r10, 1 hours
[14] = Run #J, 8° C., hours 1,4,8,12,24 at r6-r10, 4 hours
[15] = Run #J, 8° C., hours 1,4,8,12,24 at r6-r10, 8 hours
[16] = Run #J, 8° C., hours 1,4,8,12,24 at r6-r10, 12 hours
[17] = Run #J, 8° C., hours 1,4,8,12,24 at r6-r10, 24 hours
[18] = Run #K, 2° C., pH 8.2, Oxygen 0.1 mg/L, hours 1,4,8,10,12,24 at r6-r11
[19] = Run #K, 2° C., pH 8.2, Oxygen 0.1 mg/L, hours 1,4,8,10,12,24 at r6-r11, after 1 hours
[20] = Run #K, 2° C., pH 8.2, Oxygen 0.1 mg/L, hours 1,4,8,10,12,24 at r6-r11, after 4 hours
[21] = Run #K, 2° C., pH 8.2, Oxygen 0.1 mg/L, hours 1,4,8,10,12,24 at r6-r11, after 8 hours
[22] = Run #K, 2° C., pH 8.2, Oxygen 0.1 mg/L, hours 1,4,8,10,12,24 at r6-r11, after 10 hours
[23] = Run #K, 2° C., pH 8.2, Oxygen 0.1 mg/L, hours 1,4,8,10,12,24 at r6-r11, after 12 hours

## CN(C)c1cc(NC(=O)CNC(C)(C)C)c(O)c2c1C[C@H]1C[C@H]3[C@H](N(C)C)C(O)=C(C(N)=O)C(=O)[C@@]3(O)C(O)=C1C2=O [Tigecycline]
Run #I, 5° C., pH 7.9, Oxygen 1.0 mg/L, hours 1,4,8,10,12,24 at r6-r11, 12 h
  Strength: 19.151 mg/mL
[1]
  RRT 0.58: 0.10%
  RRT 0.74 Epimer: 0.23%
  Strength: 19.242 mg/mL
[2]
  RRT 0.78 MW = 557: BRL (BRL means below reporting limit (meaning less than 0.05% of tigecycline peak))
  RRT 1.12: BRL (BRL means below reporting limit (meaning less than 0.05% of tigecycline peak))
[3]
  RRT 1.64 Mino: 0.13%
  RRT 1.85 MW = 597: 0.06%
  Total: 0.54%
[4]
  RRT 1.64 Mino: 0.10%
  RRT 1.85 MW = 597: 0.09%
[5]
  RRT 1.64 Mino: 0.09%
  RRT 1.85 MW = 597: 0.08%
  Total: 0.53%
[6]
  RRT 1.64 Mino: 0.08%
  RRT 1.85 MW = 597: 0.10%
  Total: 0.98%
Run #I, 5° C., pH 7.9, Oxygen 1.0 mg/L, hours 1,4,8,10,12,24 at r17-r22, 12 h
  Total: 0.71%
[7]
  RRT 1.64 Mino: 0.11%
  Total: 0.96%
[8]
  RRT 1.67 MW = 556: 0.09%
  Strength: 19.515 mg/mL
[9]
  RRT 1.67 MW = 556: 0.17%
  Strength: 19.469 mg/mL
[10]
  RRT 1.67 MW = 556: 0.15%
  Strength: 19.323 mg/mL
[11]
  RRT 1.67 MW = 556: 0.19%
  Strength: 19.140 mg/mL
[12]
  RRT 1.67 MW = 556: 0.21%
  Strength: 19.152 mg/mL
[13]
  RRT 0.58: 0.06%
  RRT 0.74 Epimer: 0.20%
  RRT 1.45: 0.08%
  RRT 1.85 MW = 597: 0.09%
  Total: 0.62%
[14]
  RRT 0.74 Epimer: 0.22%
  RRT 1.45: 0.06%
  RRT 1.64 Mino: 0.09%
  RRT 1.85 MW = 597: 0.08%
  Total: 0.90%
[15]
  RRT 1.45: 0.07%
  Total: 1.00%
[16]
  RRT 0.74 Epimer: 0.24%
  RRT 1.64 Mino: 0.10%
  RRT 1.85 MW = 597: 0.11%
  Total: 1.17%
[17]
  RRT 0.58: 0.08%
  RRT 0.74 Epimer: 0.28%
  RRT 1.45: 0.05%
  RRT 1.64 Mino: 0.11%
  RRT 1.85 MW = 597: 0.10%
  Total: 1.76%
[18]
  RRT 0.12 MW = 633: BRL (BRL means below reporting limit (meaning less than 0.05% of tigecycline peak))
  RRT 0.23 MW = 572: BRL (BRL means below reporting limit (meaning less than 0.05% of tigecycline peak))
  RRT 0.50 MW = 601: BRL (BRL means below reporting limit (meaning less than 0.05% of tigecycline peak))
  RRT 0.55 MW = 583: BRL (BRL means below reporting limit (meaning less than 0.05% of tigecycline peak))
  RRT 0.64 9-Amino: BRL (BRL means below reporting limit (meaning less than 0.05% of tigecycline peak))
  RRT 0.78 MW = 557: BRL (BRL means below reporting limit (meaning less than 0.05% of tigecycline peak))
  RRT 1.12: BRL (BRL means below reporting limit (meaning less than 0.05% of tigecycline peak))
  RRT 1.58: BRL (BRL means below reporting limit (meaning less than 0.05% of tigecycline peak))
  RRT 1.67 MW = 556: BRL (BRL means below reporting limit (meaning less than 0.05% of tigecycline peak))
[19]
  RRT 0.74 Epimer: 0.16%
  RRT 1.64 Mino: 0.12%
  Strength: 19.187 mg/mL
  Total: 0.51%
[20]
  RRT 0.74 Epimer: 0.18%
  RRT 1.64 Mino: 0.13%
  Strength: 19.324 mg/mL
  Total: 0.61%
[21]
  RRT 0.58: 0.07%
  Strength: 19.127 mg/mL
  Total: 0.63%
[22]
  RRT 0.74 Epimer: 0.19%
  RRT 1.64 Mino: 0.15%
  RRT 1.85 MW = 597: 0.10%
  Strength: 20.357 mg/mL
  Total: 0.59%
[23]
  RRT 0.58: 0.08%
  RRT 0.74 Epimer: 0.22%
  RRT 1.45: 0.09%
  RRT 1.64 Mino: 0.10%
  RRT 1.85 MW = 597: 0.09%
  Strength: 19.956 mg/mL
  Total: 0.56%
